Measured values reported in PubChem BioAssay (NCI).
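Tested at 5 concentrations; 48 h exposure; 96-well plates; endpoints linearly interpolated, else capped at highest concentration. Here, GI50 denotes the concentration required for 50% inhibition of growth. At the TGI there is no net growth.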

What was measured:
Assay in all cases: NCI anticancer screen, dose series, 48 h
[1] = tested on: HOP-92 NSCLC
[2] = tested on: MDA-MB-231 breast
[3] = tested on: MDA-MB-435
[4] = tested on: NCI-H226 lung
[5] = tested on: NCI-H23 lung
[6] = tested on: PC-3 prostate
[7] = tested on: SF-539 CNS
[8] = tested on: SK-MEL-28 melanoma
[9] = tested on: SR leukemia
[10] = tested on: U251 CNS

Row | Structure (SMILES) | GI50 [1] | TGI [1] | GI50 [2] | TGI [2] | GI50 [3] | TGI [3] | GI50 [4] | TGI [4] | GI50 [5] | TGI [5] | GI50 [6] | TGI [6] | GI50 [7] | TGI [7] | GI50 [8] | TGI [8] | GI50 [9] | TGI [9] | GI50 [10] | TGI [10]
1 | CCN1CCN(c2nc(C)cc(NCc3cc(Nc4ccnc5cc(Cl)ccc45)ccc3F)n2)CC1 | 1.21 µM | 4.07 µM | 1.44 µM | 3.56 µM | 1.5 µM | 2.91 µM | 2.82 µM | 10.3 µM | 2.62 µM | 13 µM | 1.72 µM | 8.66 µM | 1.76 µM | 3.37 µM | 1.7 µM | 3.37 µM | 1.3 µM | 5.89 µM | 1.95 µM | 5.44 µM
2 | Cc1nc2sc(C(=O)Nc3cccc(Br)c3C)c(N)c2cc1C(O)c1ccccc1 (centres undefined) | 1.33 µM | 16.5 µM | 0.0473 µM | 5.66 µM | 0.0198 µM | 0.0552 µM | 0.546 µM | 22.4 µM | 0.0616 µM | 15 µM | 0.0462 µM | 37.7 µM | 0.0256 µM | 0.0733 µM | 1.51 µM | 22 µM | 0.0374 µM | > 100 µM | 0.0438 µM | 14.6 µM
3 | CC1=CC(=O)N(c2cccc3c(N4C(=O)C=C(C)C4=O)cccc23)C1=O | 2.5 µM | 21 µM | 8.44 µM | 22.5 µM | 3.13 µM | > 37.1 µM | 23.1 µM | > 63.8 µM | 15.3 µM | 39.7 µM | 7.97 µM | 22.7 µM | 3.37 µM | 26.2 µM | 7.81 µM | 43.5 µM | 1.56 µM | 5.22 µM | 5.88 µM | 19.5 µM
4 | C/C(=N\NC(=O)c1ccncc1)c1sc(-n2nc(-c3ccccc3)cc2-c2ccccc2)nc1C | – | > 31.6 µM | – | > 100 µM | – | > 31.6 µM | – | > 100 µM | – | > 31.6 µM | – | > 31.6 µM | – | > 31.6 µM | – | > 31.6 µM | – | > 31.6 µM | – | > 31.6 µM
5 | N#C/C(=C\c1cc(O)c(O)c(O)c1)C(N)=O | – | > 100 µM | – | > 100 µM | – | > 100 µM | – | > 100 µM | – | > 100 µM | – | > 100 µM | – | > 100 µM | – | > 100 µM | – | > 92.3 µM | – | > 100 µM
6 | C/C=C(\N=C=S)C(=O)OC1C(COC(C)=O)OC([C@]2(O)CC(=O)C(=N)C(C(=O)O)=C2O)C(O)C1OC1CC(OC)C(O)([C@@H](C)OC(=O)[C@@H](C)CC)C(C)O1 (some centres undefined) | – | 9.77 µM | – | 51.7 µM | – | 35.7 µM | – | 39.5 µM | – | 23.9 µM | – | 32.7 µM | – | 17.5 µM | – | 18.5 µM | – | 23.2 µM | – | 21.8 µM
7 | NS(=O)(=O)c1ccc(N=Nc2ccc[nH]c2=O)cc1 | – | > 100 µM | – | > 100 µM | – | > 100 µM | – | > 100 µM | – | > 100 µM | – | > 100 µM | – | > 100 µM | – | > 100 µM | – | > 100 µM | – | > 100 µM
8 | O=C(Oc1ccccc1)N(c1ccccc1)c1ccccc1 | 19 µM | 66.9 µM | 28 µM | > 100 µM | 24.4 µM | 75.9 µM | 33.7 µM | > 100 µM | 21.9 µM | 84.7 µM | 35.1 µM | > 100 µM | 30.4 µM | > 100 µM | – | – | 29 µM | > 100 µM | 31.1 µM | > 100 µM
9 | C=C1c2nc3ccccc3n2C=C(c2cccc(Cl)c2)N1Cc1ccc(OC)cc1 | 2.36 µM | > 82.4 µM | 0.964 µM | > 100 µM | 0.158 µM | – | 4.5 µM | 30 µM | 0.77 µM | > 35.7 µM | 2.21 µM | > 70.3 µM | 0.745 µM | 4.56 µM | 10.5 µM | 54.4 µM | 0.274 µM | 1.31 µM | 0.768 µM | > 100 µM
10 | COc1ccc2c(c1)C(=Nc1ccc(F)c(Cl)c1)c1c-2c(Nc2ccc(F)c(Cl)c2)nc2ccccc12 | 33.8 µM | > 100 µM | 23 µM | > 61.3 µM | > 100 µM | > 100 µM | 39 µM | > 77.6 µM | 19.9 µM | 58 µM | > 94.6 µM | > 100 µM | 27 µM | > 74.9 µM | > 100 µM | > 100 µM | 0.0122 µM | 0.0862 µM | 18.8 µM | 43.8 µM
11 | Cc1ccc(C[As+](c2ccccc2)(c2ccccc2)c2ccccc2)cc1 | 0.158 µM | 0.961 µM | 1.46 µM | 19.6 µM | 0.552 µM | 6.34 µM | 1.64 µM | > 100 µM | 1.02 µM | 9.36 µM | 0.409 µM | 10.4 µM | 1.71 µM | 28.3 µM | 0.927 µM | 18.5 µM | 0.797 µM | 6.07 µM | 0.58 µM | 15.9 µM
12 | Nc1[nH]nc2nc(-c3cc(Cl)ccc3Cl)cc(-c3ccc(F)cc3)c12 | 14.5 µM | 30 µM | 19.9 µM | 61.1 µM | 30.3 µM | 56 µM | 22.6 µM | 60.6 µM | 28.8 µM | 72.1 µM | 28.3 µM | 90.3 µM | – | 21.1 µM | 36.9 µM | > 100 µM | 18 µM | 69.2 µM | 21.6 µM | 44.8 µM
13 | CN1CCC2(CC1)N=C(SCC(=O)Nc1cnc3ccccc3c1)C(c1ccc(Br)cc1)=N2 | 1.22 µM | 3.35 µM | 1.55 µM | 3.23 µM | 1.72 µM | 3.21 µM | 10.4 µM | 26.2 µM | 4.3 µM | 16.3 µM | 1.77 µM | 3.74 µM | 1.74 µM | 3.41 µM | 1.79 µM | 3.3 µM | 2.07 µM | 5.29 µM | 1.83 µM | 3.65 µM
14 | CCCCC(=O)N(c1ccc(Nc2c3ccccc3nc3cc([N+](=O)[O-])ccc23)cc1)S(C)(=O)=O | 3.57 µM | 21.5 µM | 12.8 µM | 49.5 µM | 18.2 µM | > 93.1 µM | 8 µM | 32.9 µM | 12.6 µM | 42.5 µM | 3.64 µM | 54.2 µM | 5.23 µM | > 61.9 µM | 14.5 µM | 36.6 µM | 1.97 µM | > 42.6 µM | 5.32 µM | > 59.1 µM
15 | O=C1C=C(NCCO)c2nccc3c2c1nc1ccccc13 | > 100 µM | > 100 µM | 24.5 µM | > 100 µM | 29.3 µM | > 100 µM | 14.8 µM | 59.5 µM | 19.1 µM | 67.3 µM | 27.3 µM | > 100 µM | 22.9 µM | 73.1 µM | 41.4 µM | > 100 µM | 6.76 µM | > 100 µM | 23.4 µM | > 100 µM
16 | Cn1c(CCCC(=O)O)nc2cc(N(CCCl)CCCl)ccc21 | 33.5 µM | > 93.3 µM | > 69.6 µM | > 100 µM | > 75.5 µM | > 100 µM | > 66.2 µM | > 100 µM | 74.9 µM | > 100 µM | > 100 µM | > 100 µM | 65.1 µM | > 94.1 µM | > 100 µM | > 100 µM | 40.4 µM | > 100 µM | 72.7 µM | > 100 µM
17 | Cc1ccc(N)cc1[As]=[As]c1cc(N)ccc1C (centres undefined) | 0.997 µM | 2.4 µM | 1.35 µM | 2.82 µM | 1.62 µM | 3.25 µM | 1.57 µM | 3.07 µM | 1.7 µM | 3.58 µM | 1.71 µM | 3.38 µM | 1.39 µM | 2.76 µM | 1.39 µM | 2.83 µM | 0.944 µM | > 25.1 µM | 1.35 µM | 2.69 µM
18 | COc1ccc(OC)c(Nc2nc3nonc3nc2Nc2cccc(Br)c2)c1 | 0.266 µM | 3.55 µM | 1.06 µM | 10.7 µM | 0.538 µM | > 100 µM | 0.588 µM | 40.2 µM | 0.41 µM | 5.49 µM | 0.454 µM | > 100 µM | 1.25 µM | 29.5 µM | 0.779 µM | > 100 µM | 2.36 µM | 10.9 µM | 0.577 µM | 11.7 µM
19 | O=C(O)CCC(c1ccccc1)(c1ccccc1)c1ccccc1 | – | > 73.9 µM | – | > 100 µM | – | > 100 µM | – | > 100 µM | – | > 100 µM | – | > 100 µM | – | > 100 µM | – | > 100 µM | – | > 89 µM | – | > 100 µM
20 | COC(=O)C1C(C(=O)O)C2(c3ccccc3)C(=O)C1(c1ccccc1)C(c1ccccc1)=C2c1ccccc1 (centres undefined) | 10.6 µM | 30.9 µM | 19.4 µM | 38.5 µM | 24.4 µM | 58.9 µM | 24.8 µM | 66 µM | 16.5 µM | 31.5 µM | 15.2 µM | 32.5 µM | 19.5 µM | 36.3 µM | – | – | 23.8 µM | 56.6 µM | 24.2 µM | > 100 µM
